According to patent publication US20230159436A1, “APPLICATIONS OF AMIDE ANALOGS OF TRITERPENES IN CURES OF CANCER AND OTHER DISEASES” (Pacific Arrow Limited, priority 2021, published 2023):
Like-named read-outs stand apart in the source and are kept apart here.

Tests used:
U2OS = assay: MTT assay, bone (U2OS); type: cell-based
Procedure: (§1) Cells. HTB-9 (bladder), HeLa-S3 (cervix), DU145 (prostate), H460 (lung), MCF-7 (breast), K562 (leukemia), HCT116 (colon), HepG2 (liver), U2OS (bone), T98G (brain), SK-MEL-5 (Skin) and OVCAR 3, ES2 (ovary), Pancreas (Capan), Mouth (KB), Kidney (A498).
(§2) MTT Assay. The procedure for MTT assay followed the method described by Carmichael et al. (1987) with modifications. The cells were seeded into a 96-well plate at for 24 hours before drug-treatment. The cells were then exposed to the drugs for 48, 72, or 96 hours. After the drug-treatment, MTT (0.5 mg/mL) was added to cultures and incubated for an hour. The formazan (product of the reduction of tetrazolium by viable cells) formed and was dissolved with DMSO and the O.D. at 490 nm, and was measured by an ELISA reader. The MTT level of the cells before drug-treatment was also measured (T0). The % cell-growth (% G) is calculated as: % G=(TD−T0/TC−T0)×100(1), where TC or TD represents O.D. readings of control or drug-treated cells.
(§3) When T0>TD, then the cytotoxicity (LC) expressed as % of the control is calculated as: % LC=(TD−T0/T0)×100(2).

HeLa = assay: MTT assay, cervix (HeLa); type: cell-based
Procedure: as §1, §2, §3

red blood cells (RBC) = assay: Haemolytic assay; type: cell-based, human
Procedure: Erythrocytes (RBC) were isolated from human blood (EDTA whole blood, collected randomly). 50 ul of the 10% RBC suspension (in PBS) was added to 2 ml of sample solutions (concentration range from 0.1 ug/ml to 400 ug/ml) in PBS. The mixture was vortexed briefly and sat for 60 min at room temperature. The mixture was spun at 3K for 10 min and the relative amounts of lysed hemoglobin in the supernatant were measured at 540 nm. The synthetic compounds of present application were tested with this method.

Swiss3T3 cells = assay: Cytotoxicity determination in Swiss3T3 normal fibroblast; type: cell-based; settings: mouse normal fibroblast; preliminary results
Procedure: as §2

DU145 = assay: MTT assay, prostate (DU145); type: cell-based
Procedure: as §1, §2, §3

[1] = Pharmacokinetic (PK) study: blood from cardiac puncture; type: in vivo, mice; settings: IP 100 mg/kg, estimated
Procedure: Pharmacokinetic (PK) Study: Blood from Cardiac Puncture • Method: • Drug-Treatment: • Mice: CD-1 female mice (8-10 weeks, 25-30 g) • mice were injected (IP) with Test Drug (10 mg/ml, in 10% DMSO-20% Tween-80 in PBS) at a dose of 100 mg/kg. • At 1 and 2 hours after drug treatments, individual animals were anesthetized with isoflurane. • blood was obtained by cardiac puncture (between the chest-ribs bones). Animals were then euthanized by cervical dislocation. • Plasma Isolation: • Blood (0.6-0.8 ml) was centrifuged (2000 g, 15 minutes). Plasma was collected from the top layer. • 1 volume of plasma was mixed with 3 volume of acetonitrile/0.005% TFA. Mixture was stored in −20° C. for 6 minutes. • Sample was centrifuged (16000 g, 10 minutes). Supernatant was subjected to HPLC analysis. • HPLC Analysis Conditions: • Column: C18 μBondapak • Solvent: 60% acetonitrile/0.005% TFA (Trifluoroacetic acid) • Gradient: isocratic • Flow rate and run time: 1 ml/min for 30 minutes • Detection wavelength: 207 nm • O.D. range: 0.05 full scale • Calculation: • Standard cures of Test Drug is constructed (Area/3000K=1 ug Test Drug) • Area of Test Drug peak from Sample is Recorded • Amount of Test Drug was calculated according to standard cures.

HTB-9 = assay: MTT assay, bladder (HTB-9); type: cell-based
Procedure: as §1, §2, §3

HCT116 = assay: MTT assay, colon (HCT116); type: cell-based
Procedure: as §1, §2, §3

K562 = assay: MTT assay, leukemia (K562); type: cell-based, human
Procedure: as §1, §2, §3

A498 = assay: MTT assay, kidney (A498); type: cell-based
Procedure: as §1, §2, §3

K562 cells [2] = assay: Inhibition of cell cycling (flow cytometry); type: cell-based, human; settings: K562, three days, 0-20 ug/ml
Procedure: Experiment 31: Inhibition of Cell Cycling • 1. Method: Cells: Human leukemia cells K562 cultured in RPMI1640 medium. • 2. Drug: compound from present application or Tig-S (1000× stock solution in DMSO). • 3. Start cells concentration: 500000/ml. • 4. Cells were cultured with drug (0-20 ug/ml) for total of three days. • 5. Cells were harvested by centrifugation (136×g, 6 minutes); fixed with 70% ethanol and kept in −20 C before staining. • 6. Staining: Fixed cells were stained with Propidium iodide/RNase A/0.1% Triton X-100 in PBS. • 7. Flow Cytometry Analysis was performed in Baylor Core Facility with a LSRII instrument. • 8. Analysis: Single cell was gated and cell count—FL2-Area histogram were plotted. • 9. Cell distribution in different cell-cycle phases (G0/G1, S, G2/M) was analyzed.

K562 cells [3] = assay: Apoptosis in K562 cells (Annexin V / propidium iodide); type: cell-based, human
Procedure: Experiment 34: Apoptosis in K562 Cells Induced by Tig-S • 1. Cells: Human leukemia cells K562 cultured in RPMI1640 medium. • 2. Drug: Tig-S (1000× stock solution in DMSO). • 3. Start cells concentration: 500000/ml. • 4. Cells were cultured with drug (0-20 ug/ml) for Two days. • 5. Collect cells from culture (1-4 million) by centrifugation (136×g for 5 min. remove supernatant). • 6. Wash cells with 1 ml of cold PBS, collect cells by centrifugation (136×g, 5 min, remove supernatant). • 7. Re-suspend cells in 200 ul Binding buffer (10 mM HEPES, 140 mM NaCl, 2.5 mM CaCl2, pH 7.4). • 8. Stained cells by adding 10 ul Annexin V (Alexa Fluor 488, Invitrogen cat #A13201), and 2 ul Propidium iodide (1 mg/ml in water) to cell suspension. Mix. • 9. Sit at Room temperature for 15 min. • 10. Wash cells with 1 ml binding buffer. Collect cells by centrifugation. • 11. Re-suspend cells with in 1 ml of binding buffer for analysis by flow cytometry. • 12. Flow Cytometry analysis was performed in Baylor Core Facility with a LSRII instrument. • 13. Analysis: Control cells stained with PI or Annexin V-488 (Annexin V-FITC) alone were served as references. About 50000 cells were analyzed for each sample. • 14. Cell distribution in following groups: live, early apoptosis, late-apoptosis, total apoptosis and dead cells were determined. • 15.

Structure (SMILES)	IC50 of bone (U2OS) (U2OS) [µg/mL]	IC50 of cervix (HeLa) (HeLa) [µg/mL]	hemolytic activity (red blood cells (RBC))	hemolytic activity (red blood cells (RBC); up to 20 ug/ml)	IC50 in SW3T3 cells (Swiss3T3 cells)	IC50 of prostate (DU145) (DU145) [µg/mL]	half-life [1]	IC50 of bladder (HTB-9) (HTB-9) [µg/mL]	IC50 of colon (HCT116) (HCT116) [µg/mL]	IC50 of leukemia (K562) (K562) [µg/mL]	IC50 of kidney (A498) (A498) [µg/mL]	effect on cell cycle (K562 cells [2])	mechanism of cell-death (K562 cells [3])
CC=C(C)C(=O)OCC1(C)C(O)CCC2(C)C1CCC1(C)C2CC=C2C3CC(C)(C)C(O)C(O)C3(COC(=O)C(C)=CC)C(O)CC21C (stereo not drawn) [Tig-R, 24,28-O-Tigloyl-3β,16α,21β,22α,24β,28-hexahydroxyolean-12-ene]	4.5	5	no hemolytic activity	do not have hemolytic activity	above 20 ug/ml	3.6	about one	2.5	5.2	2	3.5		
CC=C(C)C(=O)OCC1(C)C(O)CCC2(C)C1CCC1(C)C2CC=C2C3CC(C)(C)C(OC(=O)C(C)=CC)C(O)C3(CO)C(O)CC21C (stereo not shown) [Tig-S]												arrested in the S-phase	induces cell-death by the apoptosis mechanism
